Data reported in publication PMC7180572, “5-Alkylamino-N-phenylpyrazine-2-carboxamides: Design, Preparation, and Antimycobacterial Evaluation” (Molecules, 2020).
In brackets after ≈: the same amount, converted by molar mass. Read-outs that look alike come from different tables or passages of the source.

Tests used:
[1] = test system: Mycobacterium tuberculosis H37Ra ITM-M006710 (ATCC 9431); assay: Microdilution broth, modified Microplate Alamar Blue Assay, whole cell growth inhibition; type: cell-based; details: Mycobacterium tuberculosis, read-out: MIC Mtb H37Ra
[2] = test system: Mycobacterium aurum DSM 43999 (ATCC 23366); assay: as above; type: cell-based; details: Mycolicibacterium aurum, read-out: MIC Mycobacterium aurum
[3] = test system: Mycobacterium smegmatis DSM 43465 (ATCC 607); assay: as above; type: cell-based; details: Mycolicibacterium smegmatis, read-out: MIC Mycobacterium smegmatis
[4] = test system: HepG2 cells; assay: HepG2 cytotoxicity, CellTiter 96 (MTS) assay; type: cell-based, human; details: for IC50: Homo sapiens, read-out: HepG2 IC50; for SI, selectivity index: IC50 (HepG2)/MIC against Mtb H37Ra (in µM)
[5] = type: physicochemical
Description: As a complementary test, final compounds were tested for in vitro activity against selected fungal and bacterial pathogens of clinical importance. The microdilution broth method was performed according to The European Committee on Antimicrobial Susceptibility Testing (EUCAST) instructions with slight modifications. The minimum inhibitory concentration was expressed in µM. Not all compounds were evaluated due to the fact of a problem with solubility which occurred for 18 samples. […] See Supplementary Materials for the list of tested strains, methodology, and full results.

[6] = test system: M. kansasii CNCTC My 235/80 (ATCC 12478); assay: 96 well plate microdilution broth method with Alamar Blue; type: cell-based; details: Mycobacterium kansasii
[7] = test system: M. avium ssp. avium CNCTC My 80/72 (ATCC 15769); assay: as above; type: cell-based; details: Mycobacterium avium
[8] = test system: Staphylococcus aureus spp.aureus ATCC 29213, CCM 4223; assay: Antibacterial microdilution broth method (EUCAST); type: cell-based; details: read-out: MIC SA
[9] = test system: Staphylococcus aureus methicillin resistant ATCC 43300, CCM 4750; assay: microbe, parasite or virus in culture; type: cell-based; details: ATCC 43300 / CCM 4750 / MRSA, read-out: MIC MRSA
[10] = test system: Staphylococcus epidermidis ATCC 12228, CCM 4418; assay: Antibacterial microdilution broth method (EUCAST); type: cell-based; details: read-out: MIC SE
[11] = test system: Enterococcus faecalis ATCC 29212, CCM 4224; assay: Antibacterial microdilution broth method (EUCAST); type: cell-based; details: read-out: MIC EF
[12] = test system: Escherichia coli ATCC 25922, CCM 3954; assay: Antibacterial microdilution broth method (EUCAST); type: cell-based; details: read-out: MIC EC
[13] = test system: Acinetobacter baumanii ATCC 19606, DSM 30007; assay: Antibacterial microdilution broth method (EUCAST); type: cell-based; details: Acinetobacter baumannii
[14] = test system: Pseudomonas aeruginosa ATCC 27853, CCM 3955; assay: Antibacterial microdilution broth method (EUCAST); type: cell-based; details: read-out: MIC PA
[15] = test system: Candida albicans ATCC 24433, CCM 8320; assay: Antifungal microdilution broth method (EUCAST); type: cell-based
[16] = test system: Candida krusei ATCC 6258, CCM 8271; assay: Antifungal microdilution broth method (EUCAST); type: cell-based; details: Pichia kudriavzevii
[17] = test system: Candida parapsilosis ATCC 22019, CCM 8260; assay: Antifungal microdilution broth method (EUCAST); type: cell-based; details: Lodderomyces parapsilosis
[18] = test system: Candida tropicalis ATCC 750, CCM 8264; assay: Antifungal microdilution broth method (EUCAST); type: cell-based; details: read-out: MIC CT
[19] = test system: Aspergillus fumigatus ATCC 204305; assay: Antifungal microdilution broth method (EUCAST); type: cell-based; details: read-out: MIC AF
[20] = test system: Aspergillus flavus CCM 8363; assay: Antifungal microdilution broth method (EUCAST); type: cell-based; details: read-out: MIC AFla
[21] = test system: Absidia corymbifera CCM 8077 (Lichtheimia corymbifera); assay: Antifungal microdilution broth method (EUCAST); type: cell-based; details: read-out: MIC AC
[22] = test system: Trichophyton interdigitale ATCC 9533, CCM 8377; assay: Antifungal microdilution broth method (EUCAST); type: cell-based; details: read-out: MIC TI
[23] = test system: Klebsiella pneumoniae ATCC 10031, CCM 4415; assay: Antibacterial microdilution broth method (EUCAST)
[24] = in vitro, Middlebrook 7H9 broth, resazurin
[25] = HepG2, 24 h incubation, > means higher concentration not reproducible due to precipitation

`CCCNc1cnc(C(=O)Nc2ccc(C)cc2)cn1` [Compound 4a, 5-(Propylamino)-N-(p-tolyl)pyrazine-2-carboxamide] showed an MIC [1, 24] of 15.6 µg/mL, an MIC [2, 24] of no less than 500 µg/mL and an MIC [3, 24] of 31.2 µg/mL (≈ 116 µM). The IC50 [4, 25] was greater than 100 µM, the “SI, selectivity index” value [4] was greater than 1.73 and the “Solubility problem in antibacterial/antifungal testing” value [5] was “precipitated in both growth media”. It also gave a melting point of 168 to 169 °C.

With `NNC(=O)c1ccncc1` [INH, isoniazid, reference compound] the MIC [1, 24] was 0.125 to 0.25 µg/mL, the MIC [2, 24] was 3.91 to 7.81 µg/mL (≈ 28.5 to 56.9 µM) and the MIC [3, 24] was 7.81 to 15.6 µg/mL (≈ 56.9 to 114 µM). The MIC ([6]; ATCC12478, Middlebrook 7H9 broth pH 6.6, read-out: MIC Mycobacterium kansasii) was 25 µg/mL (≈ 182 µM) and the MIC ([7]; ATCC15769, Middlebrook 7H9 broth pH 6.6, read-out: MIC Mycobacterium avium) was 25 µg/mL (≈ 182 µM).

Work on `CCCCNc1cnc(C(=O)Nc2ccc(CC)cc2)cn1` [Compound 5b, 5-(Butylamino)pyrazine-N-(4-ethylphenyl)-2-carboxamide] yielded an MIC [1, 24] of no less than 500 µg/mL, an MIC [2, 24] of no less than 500 µg/mL and an MIC [3, 24] of no less than 500 µg/mL. For the same compound, the IC50 [4, 25] was greater than 50 µM, the “Solubility problem in antibacterial/antifungal testing” value [5] was “precipitated in both growth media” and the melting point was 133.8 to 134.8 °C.

In the case of `CCCNc1cnc(C(=O)Nc2cc(Cl)ccc2O)cn1` [Compound 7a, N-(5-chloro-2-hydroxyphenyl)-5-(propylamino)pyrazine-2-carboxamide], the MIC [1, 24] is reported as no less than 500 µg/mL, the MIC [2, 24] is reported as 250 µg/mL (≈ 815 µM) and the MIC [3, 24] is reported as less than 3.91 µg/mL. The IC50 [4, 25] was greater than 25 µM, the “Solubility problem in antibacterial/antifungal testing” value [5] was “did not dissolve in DMSO” and the melting point was 254 to 259 °C.

For `CCCCCCNc1cnc(C(=O)Nc2ccc(C)cc2)cn1` [Compound 4d, 5-(Hexylamino)-N-(p-tolyl)pyrazine-2-carboxamide], the MIC ([1]; MIC converted to µM) was 4.99 µM, the MIC [1, 24] was 1.56 µg/mL and the MIC [2] was no less than 500 µg/mL. The MIC [3] was no less than 500 µg/mL, the MIC ([6]; ATCC12478, pH 6.6, read-out: MIC Mycobacterium kansasii) was 12.5 µg/mL (≈ 40 µM) and the MIC ([7]; ATCC15769, pH 6.6, read-out: MIC Mycobacterium avium) was greater than 100 µg/mL. For the same compound, the IC50 ([4]; HepG2, 24 h) was greater than 50 µM, the “SI, selectivity index” value [4] was greater than 10.01 and the MIC ([8]; 24 h) was greater than 500 µM. It also gave an MIC ([8]; 48 h) greater than 500 µM, an MIC ([9]; 24 h) greater than 500 µM and an MIC ([9]; 48 h) greater than 500 µM. For the same compound, the MIC ([10]; 24 h) was greater than 500 µM, the MIC ([10]; 48 h) was greater than 500 µM and the MIC ([11]; 24 h) was greater than 500 µM. It also gave an MIC ([11]; 48 h) greater than 500 µM, an MIC ([12]; 24 h) greater than 500 µM and an MIC ([12]; 48 h) greater than 500 µM. The MIC ([13]; 24h) was greater than 500 µM, the MIC ([13]; 48h) was greater than 500 µM and the MIC ([14]; 72 h) was greater than 500 µM. For the same compound, the MIC ([14]; 120 h) was greater than 500 µM, the MIC ([15]; 24 h, read-out: MIC CA) was greater than 125 µM and the MIC ([15]; 48 h, read-out: MIC CA) was greater than 125 µM. The MIC ([15]; read-out: MIC CA (Candida albicans)) was greater than 125 µM, the MIC ([16]; 24 h, read-out: MIC CK) was 125 µM (≈ 39.1 µg/mL) and the MIC ([16]; 48 h, read-out: MIC CK) was 125 µM (≈ 39.1 µg/mL). For the same compound, the MIC ([16]; read-out: MIC CK (Candida krusei)) was 125 µM (≈ 39.1 µg/mL), the MIC ([17]; 24 h, read-out: MIC CP) was 125 µM (≈ 39.1 µg/mL) and the MIC ([17]; 48 h, read-out: MIC CP) was 125 µM (≈ 39.1 µg/mL). For the same compound, the MIC ([17]; read-out: MIC CP (Candida parapsilosis)) was 125 µM (≈ 39.1 µg/mL), the MIC ([18]; 24 h) was greater than 125 µM and the MIC ([18]; 48 h) was greater than 125 µM. The MIC ([19]; ATCC204305, 24 h) was greater than 125 µM, the MIC ([19]; ATCC204305, 48 h) was greater than 125 µM and the MIC ([20]; CCM8363, 24 h) was greater than 125 µM. The MIC ([20]; CCM8363, 48 h) was greater than 125 µM, the MIC ([21]; CCM8077, 24 h) was greater than 125 µM and the MIC ([21]; CCM8077, 48 h) was greater than 125 µM. The MIC ([22]; 72 h) was greater than 125 µM, the MIC ([22]; 120 h) was greater than 125 µM and the melting point was 163 to 164 °C. For the same compound, the “MIC KP” value ([23]; 24h) was greater than 500 µM and the “MIC KP” value ([23]; 48h) was greater than 500 µM.
